Patent US20060069132A1, “Azolecarboxamide herbicides” (priority 2004, published 2006)

Experiments:
Experiment in all cases: Test A pre-/postemergence herbicide test
barnyardgrass = format: in vivo, Echinochloa crus-galli
Description: (§1) Seeds of plant species selected from barnyardgrass (Echinochloa crus-galli (L.) Beauv.), downy bromegrass (Bromus tectorum L.), large crabgrass (Digitaria sanguinalis (L.) Scop.), giant foxtail (Setaria faberi Herrm.), morningglory (Ipomoea spp.), redroot pigweed (Amaranthus retroflexus L.) and velvetleaf (Abutilon theophrasti Medik.) were planted into a sandy loam soil and treated preemergence with a directed soil spray using test chemicals formulated in a non-phytotoxic solvent mixture which included a surfactant. At the same time plants selected from these species were also treated postemergence by spraying to runoff with test chemicals formulated.
(§2) Plants ranged in height from 2 to 10 cm and were in the one- to two-leaf stage for the postemergence treatment. Treated plants and untreated controls were maintained in a greenhouse for approximately ten days, after which time all treated plants were compared to untreated controls and visually evaluated for injury. Plant response ratings, summarized in Table A, are based on a 0 to 100 scale where 0 is no effect and 100 is complete control. A dash (-) response means no test results.

large crabgrass = format: in vivo, Digitaria sanguinalis
Description: as §1, §2

giant foxtail = format: in vivo, Setaria faberi
Description: as §1, §2

morningglory = format: in vivo, Ipomoea spp.
Description: as §1, §2

redroot pigweed = format: in vivo, Amaranthus retroflexus
Description: as §1, §2

velvetleaf = format: in vivo, Abutilon theophrasti
Description: as §1, §2

[1] = Postemergence, 500 g ai/ha, 0 to 100 scale, 0 no effect, 100 complete control
[2] = Postemergence, 2000 g ai/ha, 0 to 100 scale, 0 no effect, 100 complete control
[3] = Preemergence, 2000 g ai/ha, visual rating, 0 to 100 scale (0 no effect, 100 complete control)
[4] = preemergence, 500 g ai/ha, visual injury, 0 to 100 scale (0 no effect, 100 complete control)
[5] = Postemergence, 125 g ai/ha, 0 to 100 scale, 0 no effect, 100 complete control
[6] = preemergence, 125 g ai/ha, visual injury, 0 to 100 scale (0 no effect, 100 complete control)

| Structure (SMILES) | Barnyardgrass plant response rating (barnyardgrass; [1]) | Barnyardgrass plant response rating (barnyardgrass; [4]) | Crabgrass, Large plant response rating (large crabgrass; [1]) | Crabgrass, Large plant response rating (large crabgrass; [4]) | Foxtail, Giant plant response rating (giant foxtail; [1]) | Foxtail, Giant plant response rating (giant foxtail; [4]) | Morningglory plant response rating (morningglory; [1]) | Morningglory plant response rating (morningglory; [4]) | Pigweed plant response rating (redroot pigweed; [1]) | Pigweed plant response rating (redroot pigweed; [4]) | Velvetleaf plant response rating (velvetleaf; [1]) | Velvetleaf plant response rating (velvetleaf; [4]) | Barnyardgrass plant response rating (barnyardgrass; [5]) | Barnyardgrass plant response rating (barnyardgrass; [6]) | Crabgrass, Large plant response rating (large crabgrass; [5]) | Crabgrass, Large plant response rating (large crabgrass; [6]) | Foxtail, Giant plant response rating (giant foxtail; [5]) | Foxtail, Giant plant response rating (giant foxtail; [6]) | Morningglory plant response rating (morningglory; [5]) | Morningglory plant response rating (morningglory; [6]) | other results |
| --- | --- | --- | --- | --- | --- | --- | --- | --- | --- | --- | --- | --- | --- | --- | --- | --- | --- | --- | --- | --- | --- |
| CCNC(=O)c1cccc(NC(=O)c2cn(CC)nc2C(F)(F)F)c1 [Compound 172] | 0 | 0 | 0 | 0 | 0 | 0 | 10 | 0 | 25 | 0 | 5 | 0 |  |  |  |  |  |  |  |  | Plant response rating, Barnyardgrass (barnyardgrass; [2]): 0; Barnyardgrass plant response rating (barnyardgrass; [3]): 0; Plant response rating, Crabgrass, Large (large crabgrass; [2]): 0; Crabgrass, Large plant response rating (large crabgrass; [3]): 0; Plant response rating, Foxtail, Giant (giant foxtail; [2]): 0; Foxtail, Giant plant response rating (giant foxtail; [3]): 0; Plant response rating, Morningglory (morningglory; [2]): 10; Morningglory plant response rating (morningglory; [3]): 0; Plant response rating, Pigweed (redroot pigweed; [2]): 60; Pigweed plant response rating (redroot pigweed; [3]): 40; Plant response rating, Velvetleaf (velvetleaf; [2]): 15; Velvetleaf plant response rating (velvetleaf; [3]): 0 |
| CCOC(=O)c1ccc(F)c(NC(=O)c2nc(C(C)(C)C)nn2CC)c1 [Compound 451] | 20 | 55 | 30 | 25 | 20 | 45 | 20 | 5 | 50 | 0 | 30 | 20 | 10 | 15 | 10 | 5 | 10 | 5 | 20 | 0 | Pigweed plant response rating (redroot pigweed; [5]): 10; Pigweed plant response rating (redroot pigweed; [6]): 0; Velvetleaf plant response rating (velvetleaf; [5]): 20; Velvetleaf plant response rating (velvetleaf; [6]): 0 |
| CCNC(=O)c1ccnc(NC(=O)c2cn(C(C)(C)C)nc2CC)c1 [Compound 452] | 35 | 70 | 20 | 45 | 25 | 45 | 30 | 10 | 70 | 65 | 30 | 5 | 10 | 15 | 10 | 20 | 10 | 5 | 20 | 0 | Pigweed plant response rating (redroot pigweed; [5]): 20; Pigweed plant response rating (redroot pigweed; [6]): 10; Velvetleaf plant response rating (velvetleaf; [5]): 20; Velvetleaf plant response rating (velvetleaf; [6]): 0 |
